How the values were obtained:
Experiment in all cases: diffusion method in agar medium (zone of inhibition)
Assay type in all cases: cell-based
[1] = test system: Lactobacillus acidophilus; details: for inhibition of growth (in words): Table 2
Experimental: (§1) The antibiotic activity of zinc and copper soaps (salts of copper caprylate, caprate, caproate and laurate; and salts of zinc caprylate, caprate, caproate and laurate) was measured according to the diffusion method in agar medium, the protocol of which is detailed below.
(§2) This method consists in depositing on inoculated agar culture medium sterile absorbent paper discs impregnated with the antibiotic solution to be examined.
(§3) The activity of an antibiotic is estimated by comparing the inhibition of growth of sensitive microorganisms caused respectively by known concentrations of the antibiotic to be examined and of a reference substance.
(§4) The diluents and culture media used are: • 0.85% physiological saline (AES, reference PHYW-AEB110389), • buffered peptone water (bioMerieux, reference 42111), • Sabouraud glucose agar with chloramphenicol (bioMerieux, reference 42620), • Neutral MRS agar pH=6.4 (AES, reference AEB621756N), • Trypcase soy agar (bioMerieux, reference 41466), • Cetrimide agar (bioMerieux, reference 43565).
(§5) The agar culture medium is poured into a petri dish. Once solidified, the surface of the agar is inoculated in a layer with the selected microorganism. Then fitter paper discs, 6.6 mm in diameter, impregnated with the various solutions to be tested are placed on the surface. The petri dishes are left at room temperature for about 1 hour to allow the substances to diffuse in the agar.
(§6) The cultures are then incubated at 32.5° C.±2.5° C. The agar media and the incubation conditions are suited to the inoculated microorganism.
(§7) The diameter of the zone of inhibition is a function of the concentration, diffusion and activity of the tested substance placed on the filter.

[2] = test system: Bifidobacterium; details: for inhibition of growth (in words): Table 2
Experimental: as §1, §2, §3, §4, §5, §6, §7

[3] = test system: Saccharomyces cerevisiae; details: for inhibition of growth (in words): Table 2
Experimental: as §1, §2, §3, §4, §5, §6, §7

[4] = test system: Bacillus coagulans (spores); details: for inhibition of growth (in words): Table 2
Experimental: as §1, §2, §3, §4, §5, §6, §7

[5] = test system: Lactobacillus paracasei; details: for inhibition of growth (in words): Table 2
Experimental: as §1, §2, §3, §4, §5, §6, §7

[6] = test system: Lactobacillus plantarum; details: for inhibition of growth (in words): Table 2
Experimental: as §1, §2, §3, §4, §5, §6, §7

[7] = test system: Pseudomonas putida; details: 200 mg in 2 ml of DMSO, disc 6.6 mm
Experimental: as §1, §2, §3, §4, §5, §6, §7

[8] = 200 mg in 2 ml of DMSO, disc 6.6 mm

Structure (SMILES)	inhibition of growth (in words) [1]	inhibition of growth (in words) [2]	inhibition of growth (in words) [3]	inhibition of growth (in words) [4]	inhibition of growth (in words) [5]	inhibition of growth (in words) [6]	Diameter of inhibition [7] [mm]	Diameter of inhibition [1, 8] [mm]	Diameter of inhibition [2, 8] [mm]	Diameter of inhibition [3, 8] [mm]	Diameter of inhibition [4, 8] [mm]	Diameter of inhibition [5, 8] [mm]	Diameter of inhibition [6, 8] [mm]
CCCCCCCCCCCC(=O)OCC(O)CO (stereo not shown) [Glycerol monolaurate]	inhibition	no inhibition	no inhibition	inhibition	no inhibition	no inhibition	–	–	–	–	–	–	–
CCCCCCCC(=O)Oc1cc(C)ccc1C(C)C [Thymol caprylate]	–	–	–	–	–	–	7.86	8.2	9	7.28	8.5	7.75	6.9
CCCCCCCC(=O)OCC(O)CO (stereo not shown) [Glyceryl caprylate]	inhibition	inhibition	inhibition	inhibition	inhibition	inhibition	–	–	–	–	–	–	–
